Here are results for one compound from PMC6576746, “Rational discovery of dual-indication multi-target PDE/Kinase inhibitor for precision anti-cancer therapy using structural systems pharmacology” (PLoS Computational Biology, 2019).

Holding throughout (experiment): biochemical
Holding throughout (parameters): DiscoverX KinomeScan competition binding assay across human kinases; per cent of control at 10 and 100 uM

One experiment addresses T1, MLK1 (Homo sapiens, UniProt P80192).
T1 construct: gene MAP3K9
The note with it: competition binding, % of control; read-out: Percent Control (100 uM Levosimendan). Summed up:
(§1)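 Binding is expressed as %control, normalised between positive and negative control signals. The compound (levosimendan) was tested at 10 μM and 100 μM in the DiscoverX KinomeScan competition binding format against human kinases.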

The target in the next experiment is AAK1 (Homo sapiens, UniProt Q2M2I8). Conditions: competition binding, % of control. Summed up: as §1
Another experiment has as its target FGFR1 (Homo sapiens, UniProt P11362). Conditions: competition binding, % of control. Summed up:
as §1

The next experiment has as its target WNK3 (Homo sapiens, UniProt Q9BYP7). The note with it: competition binding, % of control; read-out: Percent Control (100 uM Levosimendan). The method, boiled down: as §1
The target of a further experiment is ACVR2A (Homo sapiens, UniProt P27037). The note with it: competition binding, % of control. The method, boiled down:
as §1

A further experiment deals with INSR (Homo sapiens, UniProt P06213). The note with it: competition binding, % of control; read-out: Percent Control (100 uM Levosimendan). Summed up: as §1
A further experiment addresses PIK3CA(E542K) (Homo sapiens, UniProt P42336, E542K). Conditions: competition binding, % of control; read-out: Percent Control (100 uM Levosimendan). Summed up:
as §1

Experiment [1] addresses T2, JAK1(JH2domain-pseudokinase) (Homo sapiens, UniProt P23458).
T2 construct: JH2domain-pseudokinase
Conditions: competition binding, % of control. Summed up:
as §1

The next experiment addresses MUSK (Homo sapiens, UniProt O15146). The note with it: competition binding, % of control; read-out: Percent Control (100 uM Levosimendan). Summed up: as §1
The target in another experiment is HUNK (Homo sapiens, UniProt P57058). The note with it: competition binding, % of control; read-out: Percent Control (100 uM Levosimendan). The method, boiled down: as §1
A further experiment addresses FGFR3(G697C) (Homo sapiens, UniProt P22607, G697C). The note with it: competition binding, % of control; read-out: Percent Control (100 uM Levosimendan). The method, boiled down: as §1
Another experiment deals with CSNK1A1L (Homo sapiens, UniProt Q8N752). The note with it: competition binding, % of control; read-out: Percent Control (100 uM Levosimendan). The method, boiled down:
as §1

Experiment [2] concerns the target T3, RSK1(Kin.Dom.2-C-terminal) (Homo sapiens, UniProt Q15418).
T3 construct: gene RPS6KA1; Kin.Dom.2-C-terminal
Conditions: competition binding, % of control; read-out: Percent Control (100 uM Levosimendan). Summed up: as §1

The target of a further experiment is MAP3K3 (Homo sapiens, UniProt Q99759). The note with it: competition binding, % of control; read-out: Percent Control (100 uM Levosimendan). The method, boiled down: as §1
For a further experiment, the target named is SRC (Homo sapiens, UniProt P12931). The note with it: competition binding, % of control. The method, boiled down:
as §1

Another experiment addresses CSF1R (Homo sapiens, UniProt P07333). The note with it: competition binding, % of control. The method, boiled down: as §1
Another experiment has as its target IRAK4 (Homo sapiens, UniProt Q9NWZ3). Conditions: competition binding, % of control; read-out: Percent Control (100 uM Levosimendan). Summed up:
as §1

For a further experiment, the target named is HIPK2 (Homo sapiens, UniProt Q9H2X6). The note with it: competition binding, % of control; read-out: Percent Control (100 uM Levosimendan). Summed up: as §1
The mark [3] stands for this setting: read-out: Percent Control (10 uM Levosimendan).
Where [4] appears, read: read-out: Percent Control (100 uM Levosimendan).

T2 sequence (P23458 whole entry): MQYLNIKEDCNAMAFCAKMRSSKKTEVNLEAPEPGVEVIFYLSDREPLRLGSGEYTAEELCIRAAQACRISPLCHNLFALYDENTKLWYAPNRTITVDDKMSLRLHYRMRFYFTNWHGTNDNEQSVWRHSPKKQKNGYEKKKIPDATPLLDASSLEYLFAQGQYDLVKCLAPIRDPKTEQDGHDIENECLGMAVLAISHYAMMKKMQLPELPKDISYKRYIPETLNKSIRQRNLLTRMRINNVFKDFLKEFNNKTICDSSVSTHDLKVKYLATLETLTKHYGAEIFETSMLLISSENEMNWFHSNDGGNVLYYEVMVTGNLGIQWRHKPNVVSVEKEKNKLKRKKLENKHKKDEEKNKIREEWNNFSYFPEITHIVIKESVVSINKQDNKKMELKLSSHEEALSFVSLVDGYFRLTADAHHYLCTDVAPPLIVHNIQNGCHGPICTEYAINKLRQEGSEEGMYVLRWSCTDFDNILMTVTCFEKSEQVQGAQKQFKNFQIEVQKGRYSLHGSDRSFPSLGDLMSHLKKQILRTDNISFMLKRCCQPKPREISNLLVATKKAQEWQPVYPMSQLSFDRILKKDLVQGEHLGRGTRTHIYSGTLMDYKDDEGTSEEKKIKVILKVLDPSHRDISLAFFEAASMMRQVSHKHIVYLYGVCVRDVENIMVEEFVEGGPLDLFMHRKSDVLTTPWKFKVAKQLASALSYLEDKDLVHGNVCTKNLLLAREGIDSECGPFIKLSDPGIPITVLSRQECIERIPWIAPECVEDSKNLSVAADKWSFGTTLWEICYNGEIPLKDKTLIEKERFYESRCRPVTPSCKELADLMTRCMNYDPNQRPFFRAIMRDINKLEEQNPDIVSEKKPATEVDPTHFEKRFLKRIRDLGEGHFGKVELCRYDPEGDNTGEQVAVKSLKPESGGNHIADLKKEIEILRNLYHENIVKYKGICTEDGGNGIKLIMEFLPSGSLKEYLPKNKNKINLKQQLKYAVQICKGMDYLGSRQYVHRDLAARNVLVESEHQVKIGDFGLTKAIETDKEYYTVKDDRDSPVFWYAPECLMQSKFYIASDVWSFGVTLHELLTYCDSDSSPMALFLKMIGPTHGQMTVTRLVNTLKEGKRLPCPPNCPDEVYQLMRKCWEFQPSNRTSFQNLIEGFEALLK
FGFR1, sequence (P11362 whole entry): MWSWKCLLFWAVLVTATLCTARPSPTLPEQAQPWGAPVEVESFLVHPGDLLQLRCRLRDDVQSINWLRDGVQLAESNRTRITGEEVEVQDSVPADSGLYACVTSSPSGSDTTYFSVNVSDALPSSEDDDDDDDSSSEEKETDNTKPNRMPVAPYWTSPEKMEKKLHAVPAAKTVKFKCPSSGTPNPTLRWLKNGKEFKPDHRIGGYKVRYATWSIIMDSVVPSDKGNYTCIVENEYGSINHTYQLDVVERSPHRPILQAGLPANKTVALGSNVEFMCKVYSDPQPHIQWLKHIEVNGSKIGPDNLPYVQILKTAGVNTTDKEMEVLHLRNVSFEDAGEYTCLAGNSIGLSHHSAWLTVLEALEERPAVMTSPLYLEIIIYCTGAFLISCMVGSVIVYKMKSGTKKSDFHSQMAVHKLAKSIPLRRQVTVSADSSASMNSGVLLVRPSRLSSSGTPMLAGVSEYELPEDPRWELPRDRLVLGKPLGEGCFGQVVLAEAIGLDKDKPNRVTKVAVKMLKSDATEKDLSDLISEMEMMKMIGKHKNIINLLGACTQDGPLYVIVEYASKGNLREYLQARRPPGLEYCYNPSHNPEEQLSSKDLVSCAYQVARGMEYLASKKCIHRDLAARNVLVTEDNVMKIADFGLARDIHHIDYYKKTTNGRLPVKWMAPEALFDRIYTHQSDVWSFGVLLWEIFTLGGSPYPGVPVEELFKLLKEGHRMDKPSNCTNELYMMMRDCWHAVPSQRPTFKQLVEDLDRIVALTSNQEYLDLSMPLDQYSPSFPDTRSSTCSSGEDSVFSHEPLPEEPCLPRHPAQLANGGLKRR
SRC, sequence (P12931 whole entry): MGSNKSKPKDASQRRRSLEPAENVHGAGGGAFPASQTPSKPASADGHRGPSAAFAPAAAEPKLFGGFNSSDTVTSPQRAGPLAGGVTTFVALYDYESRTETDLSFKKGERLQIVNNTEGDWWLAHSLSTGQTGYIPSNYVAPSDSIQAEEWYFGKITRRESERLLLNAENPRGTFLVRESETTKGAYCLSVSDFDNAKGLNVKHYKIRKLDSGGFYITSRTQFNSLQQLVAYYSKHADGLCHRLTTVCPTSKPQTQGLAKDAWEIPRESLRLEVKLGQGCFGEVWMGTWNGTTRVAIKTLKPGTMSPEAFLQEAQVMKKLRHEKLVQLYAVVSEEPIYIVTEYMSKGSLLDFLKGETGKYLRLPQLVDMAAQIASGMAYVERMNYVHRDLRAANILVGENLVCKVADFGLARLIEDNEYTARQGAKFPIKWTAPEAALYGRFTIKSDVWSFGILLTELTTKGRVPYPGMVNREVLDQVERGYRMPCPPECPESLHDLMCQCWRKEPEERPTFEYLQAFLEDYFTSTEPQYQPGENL
CSF1R, sequence (P07333 whole entry): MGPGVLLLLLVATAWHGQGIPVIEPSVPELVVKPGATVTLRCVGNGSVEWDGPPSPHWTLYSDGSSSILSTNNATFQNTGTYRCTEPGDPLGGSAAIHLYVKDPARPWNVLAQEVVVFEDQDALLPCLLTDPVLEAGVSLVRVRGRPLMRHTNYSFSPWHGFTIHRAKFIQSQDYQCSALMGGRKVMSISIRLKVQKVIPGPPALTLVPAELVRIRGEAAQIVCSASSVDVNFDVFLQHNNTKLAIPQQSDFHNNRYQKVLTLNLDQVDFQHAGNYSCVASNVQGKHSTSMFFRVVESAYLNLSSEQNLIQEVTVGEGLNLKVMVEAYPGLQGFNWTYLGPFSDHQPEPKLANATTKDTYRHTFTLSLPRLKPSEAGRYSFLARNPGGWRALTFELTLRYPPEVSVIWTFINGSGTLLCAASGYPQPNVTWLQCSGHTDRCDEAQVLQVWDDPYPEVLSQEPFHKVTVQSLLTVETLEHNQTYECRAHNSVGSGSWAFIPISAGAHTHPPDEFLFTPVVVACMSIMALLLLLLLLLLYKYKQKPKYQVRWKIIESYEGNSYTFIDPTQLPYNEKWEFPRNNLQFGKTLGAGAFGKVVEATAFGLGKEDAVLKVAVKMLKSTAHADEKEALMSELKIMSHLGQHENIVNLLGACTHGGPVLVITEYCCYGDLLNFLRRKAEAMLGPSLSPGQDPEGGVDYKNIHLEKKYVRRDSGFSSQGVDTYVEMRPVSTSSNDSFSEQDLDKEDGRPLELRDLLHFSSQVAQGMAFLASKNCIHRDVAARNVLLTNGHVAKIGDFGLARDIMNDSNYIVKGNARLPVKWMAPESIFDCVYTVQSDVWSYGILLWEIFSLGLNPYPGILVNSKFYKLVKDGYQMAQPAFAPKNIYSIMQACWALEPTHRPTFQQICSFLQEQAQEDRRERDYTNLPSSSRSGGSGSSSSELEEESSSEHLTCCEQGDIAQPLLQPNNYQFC
ACVR2A, sequence (P27037 whole entry): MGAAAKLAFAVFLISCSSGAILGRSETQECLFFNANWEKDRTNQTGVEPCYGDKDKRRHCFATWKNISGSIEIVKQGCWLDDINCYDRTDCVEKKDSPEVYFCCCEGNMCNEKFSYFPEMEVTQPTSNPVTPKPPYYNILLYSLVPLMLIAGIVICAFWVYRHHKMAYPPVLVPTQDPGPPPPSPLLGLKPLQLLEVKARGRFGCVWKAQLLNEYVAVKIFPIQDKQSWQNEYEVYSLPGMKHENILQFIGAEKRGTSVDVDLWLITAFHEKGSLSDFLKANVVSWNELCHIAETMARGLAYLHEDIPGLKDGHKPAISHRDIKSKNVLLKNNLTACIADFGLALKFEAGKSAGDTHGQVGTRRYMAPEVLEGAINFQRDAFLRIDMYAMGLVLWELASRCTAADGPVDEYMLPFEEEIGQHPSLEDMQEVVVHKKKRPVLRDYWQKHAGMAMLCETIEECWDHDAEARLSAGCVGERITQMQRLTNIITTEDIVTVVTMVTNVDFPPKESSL
AAK1, sequence (Q2M2I8 whole entry): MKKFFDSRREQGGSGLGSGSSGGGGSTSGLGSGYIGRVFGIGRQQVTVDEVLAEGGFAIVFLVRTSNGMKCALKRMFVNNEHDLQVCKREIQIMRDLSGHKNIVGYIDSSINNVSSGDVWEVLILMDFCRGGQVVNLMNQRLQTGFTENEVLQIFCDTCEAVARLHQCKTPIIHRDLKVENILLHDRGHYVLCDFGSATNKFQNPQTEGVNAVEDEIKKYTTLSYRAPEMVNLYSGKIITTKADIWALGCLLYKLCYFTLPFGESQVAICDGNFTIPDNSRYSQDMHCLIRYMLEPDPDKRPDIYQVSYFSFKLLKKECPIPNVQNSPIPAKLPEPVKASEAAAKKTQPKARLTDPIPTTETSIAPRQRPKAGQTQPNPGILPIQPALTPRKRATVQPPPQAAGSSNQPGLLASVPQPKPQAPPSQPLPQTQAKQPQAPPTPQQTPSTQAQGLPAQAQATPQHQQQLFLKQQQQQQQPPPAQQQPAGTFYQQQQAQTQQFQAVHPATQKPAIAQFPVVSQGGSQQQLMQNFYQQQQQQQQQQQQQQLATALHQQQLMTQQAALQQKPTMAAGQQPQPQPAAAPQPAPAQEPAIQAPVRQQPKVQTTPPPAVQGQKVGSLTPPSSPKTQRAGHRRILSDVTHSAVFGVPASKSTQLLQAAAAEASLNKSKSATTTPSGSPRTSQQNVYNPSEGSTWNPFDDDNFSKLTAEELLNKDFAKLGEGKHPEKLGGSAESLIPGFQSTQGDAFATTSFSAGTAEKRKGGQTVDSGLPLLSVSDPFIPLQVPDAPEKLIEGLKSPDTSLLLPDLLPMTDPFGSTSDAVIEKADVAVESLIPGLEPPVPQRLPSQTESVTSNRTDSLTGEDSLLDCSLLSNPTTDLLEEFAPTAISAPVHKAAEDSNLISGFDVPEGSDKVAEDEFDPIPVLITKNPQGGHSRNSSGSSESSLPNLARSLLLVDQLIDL

With `C[C@@H]1CC(=O)NN=C1c1ccc(NN=C(C#N)C#N)cc1` [levosimendan], the remaining binding at 100 µM is 79% at MLK1; 24% at AAK1 (setting [4]); 50% at FGFR1 (setting [4]); 81% at WNK3; 46% at ACVR2A (setting [4]); 76% on INSR. The remaining binding at 100 µM on PIK3CA(E542K) turned out to be 100%; in experiment [1] (setting [4]), 7.2%; on MUSK, 100%; at HUNK it was 100%; on FGFR3(G697C) it was 80%; on CSNK1A1L it was 55%. Further, the remaining binding at 100 µM was determined as 100% in [2]; 66% on MAP3K3; 42% at SRC (setting [4]); 40% at CSF1R (setting [4]); 80% on IRAK4; 69% at HIPK2. For the same compound, the remaining binding at 10 µM at AAK1 (setting [3]) amounted to 31%; at FGFR1 (setting [3]) it was 98%; at ACVR2A (setting [3]), 100%; in experiment [1] (setting [3]), 30%; at SRC (setting [3]), 100%; at CSF1R (setting [3]), 78%.
